Key:
Format in all cases: ADME
[1] = Compound was tested for esterase rate in the presence of N62C screen enzyme
[2] = Compound was tested for amidase rate in the presence of N62C fully characterised enzyme
[3] = Compound was tested for amidase rate in the presence of N62C screen enzyme
[4] = Compound was tested for esterase rate in the presence of S166C fully characterised enzyme
[5] = Compound was tested for esterase rate in the presence of N62C fully characterised enzyme
[6] = Compound was tested for esterase rate in the presence of S166C screen enzyme
[7] = Compound was tested for amidase rate in the presence of S166C screen enzyme
[8] = Compound was tested for amidase rate in the presence of S166C fully characterised enzyme

Q: For `COc1ccc(CSS(C)(=O)=O)cc1`, which “k cat/Km” value [1] is on record?
A: Its value is 5.68e+06 M⁻¹ s⁻¹.

Q: And the “k cat/Km” value [2]?
A: The value was 93000 M⁻¹ s⁻¹.

Q: What about the “k cat/Km” value [3] of the same compound?
A: Its value is 86000 M⁻¹ s⁻¹.

Q: What about the “k cat/Km” value [4] of the same compound?
A: The value was 5.798e+06 M⁻¹ s⁻¹.

Q: What about the “k cat/Km” value [5] of the same compound?
A: The value was 7.87e+06 M⁻¹ s⁻¹.

Q: And the “k cat/Km” value [6]?
A: Its value is 1.746e+06 M⁻¹ s⁻¹.

Q: What about the “k cat/Km” value [7] of the same compound?
A: The value was 17000 M⁻¹ s⁻¹.

Q: What about the “k cat/Km” value [8] of the same compound?
A: Its value is 68000 M⁻¹ s⁻¹.

Q: Which “k cat/Km” value [1] does the source give for `CS(=O)(=O)SCc1ccc(C(=O)O)cc1` here?
A: The value was 7.68e+06 M⁻¹ s⁻¹.

Q: And the “k cat/Km” value [2]?
A: The value was 442000 M⁻¹ s⁻¹.

Q: And the “k cat/Km” value [3]?
A: Its value is 74000 M⁻¹ s⁻¹.

Q: What about the “k cat/Km” value [4] of the same compound?
A: The value was 1.146e+07 M⁻¹ s⁻¹.

Q: What about the “k cat/Km” value [5] of the same compound?
A: The value was 5.07e+07 M⁻¹ s⁻¹.

Q: What about the “k cat/Km” value [6] of the same compound?
A: The value was 2.37e+06 M⁻¹ s⁻¹.

Q: And the “k cat/Km” value [7]?
A: Its value is 16000 M⁻¹ s⁻¹.

Q: And the “k cat/Km” value [8]?
A: The value was 72000 M⁻¹ s⁻¹.

Q: For `CS(=O)(=O)SCc1ccccc1`, which “k cat/Km” value [1] is on record?
A: The value was 6.51e+06 M⁻¹ s⁻¹.

Q: And the “k cat/Km” value [2]?
A: The value was 379000 M⁻¹ s⁻¹.

Q: What about the “k cat/Km” value [3] of the same compound?
A: Its value is 207000 M⁻¹ s⁻¹.

Q: What about the “k cat/Km” value [4] of the same compound?
A: The value was 4.92e+06 M⁻¹ s⁻¹.

Q: What about the “k cat/Km” value [5] of the same compound?
A: Its value is 6.33e+06 M⁻¹ s⁻¹.

Q: What about the “k cat/Km” value [6] of the same compound?
A: The value was 1.16e+06 M⁻¹ s⁻¹.

Q: And the “k cat/Km” value [7]?
A: The value was 10000 M⁻¹ s⁻¹.

Q: What about the “k cat/Km” value [8] of the same compound?
A: The value was 20000 M⁻¹ s⁻¹.

Q: Which “k cat/Km” value [1] does the source give for `CS(=O)(=O)SCc1c(F)c(F)c(F)c(F)c1F` [METHANETHIOSULFONIC ACID PENTAFLUOROPHENYLMETHYL ESTER] here?
A: The value was 7.52e+06 M⁻¹ s⁻¹.

Q: And the “k cat/Km” value [2]?
A: The value was 198000 M⁻¹ s⁻¹.

Q: What about the “k cat/Km” value [3] of the same compound?
A: The value was 111000 M⁻¹ s⁻¹.

Q: And the “k cat/Km” value [4]?
A: Its value is 5.198e+06 M⁻¹ s⁻¹.

Q: And the “k cat/Km” value [5]?
A: The value was 1.426e+07 M⁻¹ s⁻¹.

Q: And the “k cat/Km” value [6]?
A: Its value is 784000 M⁻¹ s⁻¹.

Q: What about the “k cat/Km” value [7] of the same compound?
A: Its value is 14000 M⁻¹ s⁻¹.

Q: And the “k cat/Km” value [8]?
A: Its value is 67000 M⁻¹ s⁻¹.

Source: ChEMBL document CHEMBL1130942, “A combinatorial approach to chemical modification of subtilisin Bacillus lentus” (Bioorg Med Chem Lett, 1998)
